Source: article PMC8775867, “The Systems of Naringenin with Solubilizers Expand Its Capability to Prevent Neurodegenerative Diseases” (International Journal of Molecular Sciences, 2022)
≈ marks a conversion by molar mass, not a printed value.

Molecular target: T1, tyrosinase
T1 construct: gene PPO3
Assay: L-DOPA oxidation, absorbance […] nm
Format: biochemical
Details: L-DOPA substrate, phosphate buffer pH 6.8, room temperature

IC50	IC50 (NAR in DMSO)	Compound
5883 ± 23 µg/mL (≈ 31.3 mM)	–	O=C(O)CCCCCCCC(=O)O [azelaic acid]
–	4615 ± 89 µg/mL (≈ 17 mM)	O=C1C[C@@H](c2ccc(O)cc2)Oc2cc(O)cc(O)c21 [naringenin]
